Measurements published in patent US4007201A, “Novel pyrazole derivatives” (Kyorin Pharmaceutical Co. Ltd., priority 1975, dated 1977).
Read-outs that look alike come from different tables or passages of the source.

How the values were obtained:
Assay type in all cases: in vivo, male Sprague Dawley rats
[1] = tested on: blood glucose level in non-diabetic rats; assay: Hypoglycemic activity in non-diabetic rats (screening test); details: Rattus norvegicus, 100 mg/kg oral, fasted, glucose s.c.
Protocol: (§1) These new compounds of the present invention are very useful as anti-diabetic agents, which is supported from the following pharmacological studies. The animals used for the pharmacological studies were male Sprague Dawley rats exept otherwise noted. 1. Hypoglycemic activity in non-diabetic rats (screening test)
The rats were fasted for 16 - 18 hours prior to the experiment and those weighing 140 - 160g were used. Glucose solution (100 mg/0.5ml/150g body weight) was subcutaneously injected on the fasted rats. Each of the present compounds was suspended in 1% carboxymethyl cellulose (CMC), and about 0.5 ml of the suspension (corresponding to 100 mg/kg of the compound per body weight) was orally administered. Blood samples were taken from the tail vein of the rats at 2 and 5 hours after the administration, and the blood glucose level in each sample (0.1 ml) was determined by the micro method of Momose as described in SOGO-RINSHO 11, 120 (1962).
3,5-Dinitrophthalic acid is reduced with glucose to stable orange-red azo-compound via red hydroxyaminophthalic acid in basic media.
To 0.5ml of water was added 0.1ml of blood and shaken to hemolyze, and to which was added 1.7ml of 0.06N barium hydroxide solution. To the resulting dark-brown solution was added 1.7ml of zinc sulfate solution (1g/dl), and which was shaken thoroughly and allowed to stand for 2-3min followed by centrifugation.
One ml of 3,5-dinitrophthalic acid solution (1.5g of monopyridinium-3,5-dinitrophthalate in 500ml of water) and 1 ml of sodium carbonatesodium hyposulfite solution (125-25g/500ml) were added to 2ml of spernatant solution. The solution was heated at 100° C for 10 min. After cooling with running water for 3 min, water was added to make 20ml.
To 2ml of water were added 3,5-dinitrophthalic acid solution and an alkaline solution, and the solution was treated as mentioned above.
As the absorbance of reference at 450nm was adjusted to 0, the absorbance of sample corresponded to blood glucose level.

[2] = tested on: blood glucose level in non-diabetic rats; assay: Blood glucose level in non-diabetic rats at 90 minutes; details: 100 mg/kg oral
Protocol: as §1
(§2) The rats were fasted for 16-18 hours, and those weighing 130-160g were used. The compound 4 suspended in 1% CMC was orally administered to the fasted rats, and at 90 minutes after administration blood was drawn from the […] vena cava under anesthesia with sodium pentobarbital. The blood glucose level was determined by the method of Momose, and the serum FFA level was determined by the method of Itaya and Ui as described in J. Lipid Res., 6, 16 (1965), respectively.

[3] = tested on: serum FFA level in alloxan diabetic rats; assay: Serum FFA level in alloxan diabetic rats, 10 consecutive days; details: 100 mg/kg, 10 consecutive days
Protocol: as §1
(§3) Alloxan diabetic rats were obtained as follows. Namely, 2.5% fresh solution of alloxan (50mg/kg) was injected into the tail vein of male rats, and the rats were daily injected with insulin (1-4 units/day) from the 7th day after the administration of alloxan. The alloxan diabetic rats which were survived for more than 2 months with daily injection of insulin were used. The alloxan diabetic rats were fasted for 24 hours after the last treatment with insulin, and then the compound of the present invention was orally administered. The blood glucose levels were determined by the micro method of Momose before and 2, 4 and 6 hours after the administration.
(§4) The alloxan diabetic rats which were prepared and then preserved for 6 months with insulin as described in the previous experiment were used.

[4] = tested on: blood glucose level in alloxan diabetic rats; assay: Hypoglycemic effect in alloxan diabetic rats; details: ± SE
Protocol: as §1, §3

[5] = tested on: blood glucose level in streptozotocin-diabetic rats; assay: Hypoglycemic effect in streptozotocin-diabetic rats; details: Rattus norvegicus; 100 mg/kg oral; 4 hours
Protocol: The animals used for the pharmacological studies were male Sprague Dawley rats exept otherwise noted. 1. […]
The rats were fasted for 16 hours, and then streptozotocin was intravenously injected in a dose of 65 mg/kg. Oral administration of the compound 4 was performed at 48 hours after the injection of streptozotocin. Blood samples were taken at 4 hours after the oral administration, and the blood glucose level in each sample was determined.

[6] = tested on: serum FFA level in non-diabetic rats; assay: Serum free fatty acids (FFA) level in non-diabetic rats at 90 minutes; details: 100 mg/kg oral
Protocol: as §1, §2

[7] = tested on: serum cholesterol level in alloxan diabetic rats; assay: Serum cholesterol level in alloxan diabetic rats, 10 consecutive days; details: 100 mg/kg, 10 consecutive days
Protocol: as §1, §3, §4

[8] = tested on: blood glucose level in alloxan diabetic rats; assay: Blood glucose level in alloxan diabetic rats loaded with much quantity of glucose; details: alloxan diabetic rats; dose not stated
Protocol: as §1
Respective dose of the compound 4 (12.5 and 100 mg/kg) together with 2g/kg of glucose was orally administered to the alloxan diabetic rats.

[9] = tested on: serum FFA level in fasted rats; assay: Time course of the serum FFA level in fasted rats (FIG. 1); details: 50 mg/kg oral; 0.5, 1, 2, 4 and 6 hours
Protocol: as §1
Further experiment was performed to clarify the effectiveness of the compound 4 on the serum FFA. Blood samples were taken at 0.5, 1, 2, 4 and 6 hours after an oral administration of 50 mg/kg to the fasted rats and the serum FFA levels were determined.

[10] = 2 hours, read-out: Reduction % of blood glucose from control after 2 hours
[11] = 5 hours, read-out: Reduction % of blood glucose from control after 5 hours

Compound | inhibition in vivo at 100 mg/kg [1, 10] | inhibition in vivo at 100 mg/kg [1, 11] | further results
Cc1cc(C)n(C(=O)CCNS(=O)(=O)c2ccccc2)n1 [Example 1, 1-(N-benzenesulfonyl-β-alanyl)-3,5-dimethylpyrazole] | 22.1% | 19.8% | –
CC(=O)NCCc1ccc(S(=O)(=O)NCCC(=O)n2nc(C)cc2C)cc1 [Example 2, 1-≡N-[p-(2-acetaminoethyl)benzene-sulfonyl]-β-alanyl.quadrature. -3,5-dimethylpryrazole] | 37.1% | 26% | –
Cc1cc(C)n(C(=O)CCNS(=O)(=O)c2ccc(CCNC(=O)c3cnccn3)cc2)n1 [Example 3, 1-≡N-≡ p-[2-(2-pyrazinecarbonyl-amino)ethyl]benzenesulfonyl.quadrature. -β-alanyl.quadrature. -3,5-dimethylpyrazole] | 41.7% | 25.7% | –
CC(=O)NCCc1ccc(S(=O)(=O)NCC(=O)n2nc(C)cc2C)cc1 [Example 5, 1-≡N-[p-(2-acetaminoethyl)-benzenesulfonyl]-glycyl.quadrature.-3,5-dimethylpyrazole] | 35.2% | 34.1% | –
CCOC(=O)NCCc1ccc(S(=O)(=O)NCC(=O)n2nc(C)cc2C)cc1 [Example 6, 1-≡N-[p-(2-ethoxycarbonylaminoethyl)benzenesulfonyl]-glycyl.quadrature.-3,5-dimethylpyrazole] | 33.3% | 22.1% | –
CCOC(=O)NCCc1ccc(S(=O)(=O)NCCC(=O)n2nc(C)cc2C)cc1 [Example 7, 1-≡N-[p-(2-ethoxycarbonylaminoethyl)benzenesulfonyl]-β -alanyl.qu adrature.-3,5-dimethylpyrazole] | 41.6% | 23.3% | –
Cc1cc(C)n(C(=O)CCNS(=O)(=O)c2ccc(Cl)cc2)n1 [Example 8, 1-[N-(p-chlorobenzenesulfonyl)-β-alanyl]-3,5-dimethylpyrazole] | 42.5% | 22.1% | –
COc1ccc(Cl)cc1C(=O)NCCc1ccc(S(=O)(=O)NCC(=O)n2nc(C)cc2C)cc1 [Example 9, 1-≡N-≡p-[2-(2-methoxy-5-chlorobenzoylamino)-ethyl]benzenesulfonyl.quadrature.glycyl.quadrature.-3,5-dimethyl-pyrazole] | 48.1% | 17.7% | –
Cc1cc(C)n(C(=O)CNS(=O)(=O)c2ccc(C3CCCCC3)cc2)n1 [Example 10, 1-[N-(p-cyclohexylbenzenesulfonyl)-glycyl]-3,5-dimethylpyrazole] | 42.1% | 3.3% | –
Cc1cc(C)n(C(=O)CNS(=O)(=O)c2ccc(CC(C)C)cc2)n1 [Example 11, 1-[N-(p-isobutylbenzenesulfonyl)-glycyl]-3,5-dimethylpyrazole] | 37.9% | 1.4% | –
Cc1cc(C)n(C(=O)C(NS(=O)(=O)c2ccc(Cl)cc2)c2ccccc2)n1 (stereo not drawn) [Example 12, 1-[N-(p-chlorobenzenesulfonyl)-α-phenylglycyl]-3,5-dimethylpyrazole] | 32.6% | 4% | –
Cc1cc(C)n(C(=O)[C@H](C)NS(=O)(=O)c2ccc(Cl)cc2)n1 [Example 13, 1-[N-(p-chlorobenzenesulfonyl)-alanyl]-3,5-dimethylpyrazole] | 51.3% | 5% | –
Cc1cc(C)n(C(=O)[C@H](Cc2ccccc2)NS(=O)(=O)c2ccc(Cl)cc2)n1 [Example 14, 1-[N-(p-chlorobenzenesulfonyl)-phenylalanyl]-3,5-dimethylpyrazole] | 43.6% | -0.9% | –
[H]/N=C(/N)N/C(=N/[H])NCCc1ccccc1 [Phenformin, phenethylbiguanide, reference compound] | – | – | Blood glucose level [2]: 103.0 ± 6.9 mg/dL; FFA [3]: 89.9 ± 16.4 μ Eq/dl serum; Blood glucose before administration ([4]; 100 mg/kg oral group, before administration (baseline)): 368.7 ± 31.3 mg%; Blood glucose 2 hours ([4]; 100 mg/kg oral, 2 hours): 262.2 ± 43.3 mg%; Blood glucose 4 hours ([4]; 100 mg/kg oral, 4 hours): 196.0 ± 48.9 mg%; Blood glucose 6 hours ([4]; 100 mg/kg oral, 6 hours): 133.7 ± 29.3 mg%; inhibition at 100 mg/kg [5]: 79.9 ± 2.9%; Serum FFA level [6]: 59.8 ± 18.0 μ Eq/dl; Cholesterol [7]: 63.5 ± 5.4 mg/dl serum
COCCOc1cnc(NS(=O)(=O)c2ccccc2)nc1 [sodium glymidine] | – | – | Hypoglycemic effect (in words) [8]: no hypoglycemic effect; Effect on serum FFA level (in words, FIG. 1) [9]: only a slight suppression
